Several values for one entry are separate records, joined by “and”; a condition that tells them apart may be missing. Equal values may be shown once.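 Values below derive from 48-hour exposures of cells grown in 96-well plates, with endpoints linearly interpolated between the two concentrations bracketing the appropriate inhibition level. The concentration for 50% growth inhibition is given as GI50. TGI denotes the concentration required for complete inhibition of growth.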

Among the test systems are TK-10 renal; UACC-257 melanoma; CCRF-CEM leukemia; BT-549 breast; OVCAR-8 ovarian; A498 renal; SF-268 CNS; M14 melanoma; KM20L2 colon; M19-MEL melanoma; DLD-1 colon.
Assay in all cases: NCI-60 cell line screen, 48 h

For the compound `COC(=O)NCCc1[nH]nc2c1C(=O)C=C(N1CCOCC1)C2=O`, the TGI with TK-10 renal, in the experiment on UACC-257 melanoma, in the experiment on CCRF-CEM leukemia, in the experiment with BT-549 breast, in the experiment on OVCAR-8 ovarian and with A498 renal was over 100 µM throughout. The TGI in the experiment on SF-268 CNS and in the experiment on M14 melanoma was over 100 µM throughout.

For `COC(=O)[C@@H]1[C@@H](c2cccc(Cl)c2)[C@H](C(=O)OC)C2(C[C@@]1(C)O)NCCS2` (stereo partly drawn), the TGI in the experiment on TK-10 renal was over 100 µM; in the experiment with UACC-257 melanoma it was over 100 µM; with CCRF-CEM leukemia, 14.6 µM; in the experiment with BT-549 breast, over 100 µM; in the experiment with OVCAR-8 ovarian, over 100 µM; with A498 renal it was over 100 µM. Further, the TGI with SF-268 CNS and in the experiment with M14 melanoma was over 100 µM throughout.

Take `COc1cc2c(cc1OC)C(C(CO)CO)N(CC(O)CCl)CC2` (stereo not drawn): the TGI in the experiment on TK-10 renal, with KM20L2 colon, in the experiment on UACC-257 melanoma, in the experiment with CCRF-CEM leukemia, in the experiment on OVCAR-8 ovarian and in the experiment on A498 renal was over 100 µM each time. Besides, the TGI in the experiment with M19-MEL melanoma, in the experiment on DLD-1 colon, in the experiment with SF-268 CNS and in the experiment on M14 melanoma was over 100 µM in each case.

For `O=C1CC2(c3ccccc3)ON=C(c3ccccc3)N2c2ccccc2N1` (stereo not drawn), the TGI with TK-10 renal, with UACC-257 melanoma, with CCRF-CEM leukemia, with BT-549 breast, in the experiment with OVCAR-8 ovarian and in the experiment with A498 renal was over 100 µM throughout. Also, the TGI with SF-268 CNS and with M14 melanoma was over 100 µM each time.

With `N#CCc1n[nH]c(Cc2ccccc2)n1`, the TGI in the experiment on TK-10 renal, in the experiment on UACC-257 melanoma, in the experiment on CCRF-CEM leukemia, in the experiment on BT-549 breast, in the experiment on OVCAR-8 ovarian and in the experiment with A498 renal was over 100 µM throughout. The TGI with SF-268 CNS and with M14 melanoma was over 100 µM in each case.

Take `C[C@]12CC[C@H]3[C@@H](CC=C4C[C@@H](N5CCCC5)CC[C@@]43C)[C@@H]1C[C@H](N1CCOCC1)[C@@H]2O`: the TGI in the experiment with TK-10 renal, in the experiment on UACC-257 melanoma, in the experiment with CCRF-CEM leukemia, in the experiment on BT-549 breast, in the experiment on OVCAR-8 ovarian and in the experiment on A498 renal was over 100 µM each time. For the same compound, the TGI is over 100 µM with SF-268 CNS and over 10 µM in the experiment with M14 melanoma.

As to `COc1ccc2c(CCN)c(C(=O)O)[nH]c2c1`, the TGI in the experiment on TK-10 renal, with UACC-257 melanoma, with CCRF-CEM leukemia, in the experiment with BT-549 breast, with OVCAR-8 ovarian and in the experiment on A498 renal was over 100 µM throughout. For the same compound, the TGI in the experiment with SF-268 CNS and in the experiment with M14 melanoma was over 100 µM each time.

In the case of `COC(=O)C1=C(C(=O)OC)C(C(=O)c2ccc(Br)cc2)N2N=C(c3ccc(Cl)cc3)C=CC12` (stereo not drawn), the TGI in the experiment on TK-10 renal, with UACC-257 melanoma, in the experiment with CCRF-CEM leukemia, in the experiment with BT-549 breast, in the experiment with OVCAR-8 ovarian and with A498 renal was over 100 µM throughout. Also, the TGI with SF-268 CNS and in the experiment on M14 melanoma was over 100 µM each time.

Regarding `Cc1ccsc1/C=N/Nc1nc2ccccc2s1`, the TGI is 26.9 µM with TK-10 renal; 51.4 µM in the experiment with UACC-257 melanoma; 28.8 µM in the experiment on CCRF-CEM leukemia; over 100 µM in the experiment with BT-549 breast; over 100 µM in the experiment with OVCAR-8 ovarian; 19.2 µM with A498 renal. Besides, the results for the TGI with SF-268 CNS and in the experiment on M14 melanoma were 66.7 µM and over 100 µM, respectively.

On to `CN(C)CCNC(=O)c1cccc2c(NCCN(C)C)c3ccccc3nc12`, for which the TGI was 21.9 µM in the experiment with TK-10 renal; 17.3 µM in the experiment on UACC-257 melanoma; over 100 µM in the experiment on CCRF-CEM leukemia; 18.4 µM in the experiment with BT-549 breast; 12.4 µM in the experiment on OVCAR-8 ovarian; 4.74 µM with A498 renal. In addition, the TGI in the experiment on SF-268 CNS turned out to be 11.2 µM; with M14 melanoma, 18.6 µM.

For the compound `CC(=O)OC(/C=C/c1ccccc1)P1(=O)N(CC(C)(C)C)[C@@H]2CCCC[C@H]2N1CC(C)(C)C` (stereo partly drawn), the GI50 in the experiment with TK-10 renal is 10.1 µM and 4.82 µM. The TGI was 22.4 µM and 16.6 µM in the experiment on TK-10 renal; 13.2 µM and 11.6 µM in the experiment with UACC-257 melanoma; 47.8 µM and 34.1 µM in the experiment on CCRF-CEM leukemia; 28.5 µM and 25.9 µM in the experiment with BT-549 breast; 19.7 µM and 21.6 µM with OVCAR-8 ovarian; 21.8 µM in the experiment on A498 renal. Also, the TGI in the experiment with SF-268 CNS was 23.3 µM and 22.7 µM; in the experiment on M14 melanoma it was 17.5 µM and 18.9 µM.

As for `O=C(c1ccccc1)N1CCN(C(=S)N(C(=O)c2ccccc2)c2ccccc2)C1=S`, the TGI in the experiment with TK-10 renal was 16.6 µM; in the experiment with UACC-257 melanoma, 22.4 µM; with CCRF-CEM leukemia, over 25.8 µM; in the experiment with BT-549 breast it was 13.7 µM; in the experiment on OVCAR-8 ovarian, 13.3 µM; in the experiment on A498 renal, 13.4 µM. Further, the TGI with SF-268 CNS was 14.7 µM; in the experiment with M14 melanoma, 9.51 µM.

On to `COC(=O)C(Cc1c(C2Nc3ccccc3C2CC(NC(=O)CNC(C)=O)C(=O)OC)[nH]c2ccccc12)NC(=O)CNC(C)=O` (stereo not drawn), for which the TGI with TK-10 renal, in the experiment on UACC-257 melanoma, with CCRF-CEM leukemia, in the experiment on BT-549 breast, in the experiment with OVCAR-8 ovarian and with A498 renal was over 100 µM throughout. Besides, the TGI with SF-268 CNS and in the experiment on M14 melanoma was over 100 µM throughout.

With `Nn1c(COc2cccc(OCc3n[nH]c(=S)n3N)c2)n[nH]c1=S`, the TGI in the experiment on TK-10 renal, in the experiment with UACC-257 melanoma, in the experiment with CCRF-CEM leukemia, with BT-549 breast, in the experiment with OVCAR-8 ovarian and in the experiment on A498 renal was over 100 µM in each case. Also, the TGI in the experiment on SF-268 CNS and in the experiment on M14 melanoma was over 100 µM in each case.

As to `O=C(NCCC1([N+](=O)[O-])CCN(C(=O)c2ccccc2)CC1)c1ccccc1`, the TGI with TK-10 renal was over 100 µM; with UACC-257 melanoma, 87.8 µM; with CCRF-CEM leukemia, over 100 µM; in the experiment on BT-549 breast, over 100 µM; in the experiment with OVCAR-8 ovarian it was over 100 µM; in the experiment on A498 renal, over 100 µM. The TGI in the experiment with SF-268 CNS and in the experiment on M14 melanoma was over 100 µM in each case.

The record behind these values is PubChem BioAssay (NCI).
